The source made the active and inactive calls. The rule behind the calls is not given here.
Target: corticotropin-releasing factor-binding protein / CRF receptor 2 complex (human)
Assay: CRF-BP/CRF-R2 complex antagonists, dose response, cell-based, uHTS hits, 384-well (AID 651639)
Conditions: CRF-BP/CRF-R2 complex antagonism, cell-based 384-well

SMILES	IC50
Cc1cc(=O)oc2c1ccc1oc(/C(=N/O)c3ccccc3)c(C)c12	> 20 µM (inactive)
COc1ccc(C(C)=NNc2ccc([N+](=O)[O-])cc2S(=O)(=O)Nc2ccccc2C(=O)O)c(OC)c1	9.4 µM
COc1ccc(/C=N/OCC(=O)N=Nc2c(O)[nH]c3ccc(Br)cc23)cc1	> 20 µM (inactive)
CN1C(=O)C(N=Nc2ccc([N+](=O)[O-])cc2)SC1=S (stereo not given)	1 µM
Cc1ccc2nc(N3C(=O)C(O)=C(C(=O)c4ccc(C)o4)C3c3cccc(O)c3)sc2c1 (stereo not given)	10.4 µM
Cc1ccc(-n2[nH]c(C)c(/C=N/Nc3ccc([N+](=O)[O-])cc3[N+](=O)[O-])c2=O)cc1	15.5 µM
Cc1ccc(S(=O)(=O)N(CC(=O)N=Nc2c(O)[nH]c3ccccc23)c2ccc(C)c(C)c2)cc1	> 20 µM (inactive)
O=C1N=c2ccccc2=C1c1sc(=S)n(NC(=O)c2cccc(O)c2)c1O	> 20 µM (inactive)
O=[N+]([O-])c1cc(/C=N\O)ccc1Oc1ccc(F)cc1	17.5 µM

Next, values leading:

IC50	SMILES
> 20 µM (inactive)	CN1c2ccccc2C(O)=C(C(=S)Nc2ccc(Cl)cc2)S1(=O)=O
> 20 µM (inactive)	N#C/C(=C(/O)COc1ccc(Cl)cc1)c1nc2ccccc2s1
> 20 µM (inactive)	Cc1ccc2nc(N3C(=O)C(O)=C(C(=O)c4ccco4)C3c3cccc(O)c3)sc2c1 (stereo not given)
> 20 µM (inactive)	O=C(O)c1ccc(/C=N/Nc2cccc(C(F)(F)F)c2)cc1
11.3 µM	N#C/C(=C(/O)Cc1cccc2ccccc12)c1nc2ccccc2s1
> 20 µM (inactive)	COC(=O)c1ccc(/C(O)=C(\C#N)c2nc3ccccc3s2)cc1

— PubChem BioAssay AID651639 (Sanford-Burnham Center for Chemical Genomics, 2012)
